What was measured:
CCK-2R = molecular target: T1, CCK-2R (Rattus norvegicus, UniProt P30553); assay: CCK-2R-mediated internalization on AR42J cells; assay type: cell-based; details: for Internalization Values (%F11N) 6 h: relative to the reference DOTA-PP-F11N; for Internalization Values (%) 1 h / Internalization Values (%) 2 h / Internalization Values (%) 4 h / Internalization Values (%) 6 h: % of applied activity, 37 °C, 0.25 pmol/well, AR42J cells
T1 construct: CCK-2R-expressing rat pancreatic cancer cells AR42J; host or cells: AR42J (rat pancreatic cancer cells)
T1 sequence (P30553 1-452): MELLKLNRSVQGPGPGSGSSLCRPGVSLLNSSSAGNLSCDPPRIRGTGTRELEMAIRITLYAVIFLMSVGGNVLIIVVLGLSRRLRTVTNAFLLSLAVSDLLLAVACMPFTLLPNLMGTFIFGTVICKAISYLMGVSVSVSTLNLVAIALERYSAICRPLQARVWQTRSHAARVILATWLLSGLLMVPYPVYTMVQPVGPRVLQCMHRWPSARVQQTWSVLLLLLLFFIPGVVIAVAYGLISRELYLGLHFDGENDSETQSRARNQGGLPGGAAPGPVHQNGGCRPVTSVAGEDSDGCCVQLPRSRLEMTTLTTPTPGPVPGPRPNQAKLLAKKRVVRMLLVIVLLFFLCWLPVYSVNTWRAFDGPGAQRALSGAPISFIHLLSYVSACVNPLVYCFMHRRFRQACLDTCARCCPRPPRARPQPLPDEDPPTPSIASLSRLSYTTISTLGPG
Procedure: Figure 3 (a) CCK-2R-mediated internalization (0.25 pmol/well) measured on AR42J cells as percent (%) of applied activity (incubation at 37 °C for 1, 2, 4 and 6 h, RPMI 1640, 5 mm L-Gln, 5 mL non-essential amino acids (100×), 10% FCS + 5% BSA (v/v), 3.0 × 10^5 cells/mL/well). (b) CCK-2R-mediated internalization of [^177Lu]Lu-DOTA-rhCCK-16 (green), [^177Lu]Lu-(R)-DOTAGA-rhCCK-16 (orange), [^177Lu]Lu-DOTA-rhCCK-18 (red) and […] after incubation at 37 °C for 6 h as percent of reference (% of [^177Lu]Lu-DOTA-PP-F11N). * data taken from Holzleitner et al..
Cell Culture. CCK-2R-expressing rat pancreatic cancer cells AR42J (CLS GmbH, Eppelheim, Germany) were cultivated in monolayers in CELLSTAR® cell culture flasks acquired from Greiner Bio-One GmbH (Frickenhausen, Germany) at 37°C in a humidified atmosphere (5% CO2) using a HERAcell 150i-Incubator (Thermo Fisher Scientific Inc., Waltham, United States). The nutrient medium RPMI 1640 medium, supplemented with 5 mM L-Gln 5 mL non-essential amino acids (100×) and 10% FCS, was used. Furthermore, a Dulbecco’s PBS solution with 0.1% EDTA (v/v) was applied to detach the cells for cell passaging. The detached cells were counted using a Neubauer hemocytometer (Paul Marienfeld, Lauda-Königshofen, Germany). In addition, all operations under sterile conditions were accomplished using a MSC-Advantage safety workbench (Thermo Fisher Scientific Inc., Waltham, United States). […]
Internalization Studies. For the determination of the internalization kinetics of the various peptides, AR42J cells (3.0 × 10^5 cells/well) were seeded into polylysine-coated 24-well plates, adding 1 mL of nutrient medium. Afterwards, the cells were incubated for 24 ± 2 h at 37°C in a humidified atmosphere […]
On the day of the experiment, the medium was removed, and each well was washed with nutrient medium (300 μL). Afterwards 200 μL of nutrient medium, 25 μL of the 177Lu-labeled peptide (0.3 pmol, n = 6) and either 25 μL of nutrient medium for internalization studies ( n = 3) or 25 μL of [natLu]Lu-DOTA-PP-F11N (10 μmol) for competition studies ( n = 3) were added. Thereafter, the assay was incubated for various time points (1, 2, 4 and 6 h) at 37°C in a humidified atmosphere (5% CO2). After incubation, the cells were put on ice for at least 1 min to stop internalization kinetics and the supernatant was collected. Then, the cells were washed with an ice-cold nutrient medium (300 μL) and both fractions were unified. In order to displace the peptides from the cell membrane, 300 μL of an ice-cold glycine buffer (1 M, pH = 2.2) were added and the cells were incubated on ice for 15 min. Afterwards, the supernatant was collected, and the cells were washed with an ice-cold glycine buffer (300 μL, 1 M, pH = 2.2) while both fractions were unified. After lysis of the cells with NaOH (300 μL, 1 N) for 15 min, the respective wells were washed with NaOH (300 μL, 1 N) and both fractions were unified. The radioactivity of the supernatant, the acid wash and the lysed fractions were quantified using a γ-counter.
Lipophilicity Studies. Lipophilicity (depicted as octanol-phosphate-buffered saline solution (PBS, pH = 7.4) distribution coefficient, logD7.4) was determined by dissolving the 177Lu-labelled peptide (approx. 1 MBq) in a mixture (1/1, v/v) of n-octanol and PBS. The suspension was vortexed in a reaction vial (1.5 mL) for 3 min at room temperature and the vial was centrifuged at 9000 rpm for 5 min (Biofuge 15, Heraus Sepatech GmbH, Osterode, Germany). Amounts of 200 μL aliquots of both layers were measured separately in a γ-counter (Perkin Elmer, Waltham, MA, USA). The experiment was repeated […]
Stability Studies in Human Serum. The 177Lu- as well as 67Ga-labeled CCK-2R ligands (1 nmol, approx. 5 MBq) were incubated for 24 h in human serum (200 μL) at 37 °C. After incubation, ice-cold EtOH (125 μL) and MeCN (375 μL) were added and the suspension was centrifuged for 5 min at […]
5000 rpm. […]

[1] = molecular target: Human serum albumin (HSA) (Homo sapiens, UniProt P02768); assay: Human serum albumin (HSA) binding, ultracentrifugation method; assay type: in vitro ADME; details: HSA 700 µM in PBS, 37 °C, 30 min, n = 6, corrected for unspecific binding
Human serum albumin (HSA), sequence (P02768 25-609): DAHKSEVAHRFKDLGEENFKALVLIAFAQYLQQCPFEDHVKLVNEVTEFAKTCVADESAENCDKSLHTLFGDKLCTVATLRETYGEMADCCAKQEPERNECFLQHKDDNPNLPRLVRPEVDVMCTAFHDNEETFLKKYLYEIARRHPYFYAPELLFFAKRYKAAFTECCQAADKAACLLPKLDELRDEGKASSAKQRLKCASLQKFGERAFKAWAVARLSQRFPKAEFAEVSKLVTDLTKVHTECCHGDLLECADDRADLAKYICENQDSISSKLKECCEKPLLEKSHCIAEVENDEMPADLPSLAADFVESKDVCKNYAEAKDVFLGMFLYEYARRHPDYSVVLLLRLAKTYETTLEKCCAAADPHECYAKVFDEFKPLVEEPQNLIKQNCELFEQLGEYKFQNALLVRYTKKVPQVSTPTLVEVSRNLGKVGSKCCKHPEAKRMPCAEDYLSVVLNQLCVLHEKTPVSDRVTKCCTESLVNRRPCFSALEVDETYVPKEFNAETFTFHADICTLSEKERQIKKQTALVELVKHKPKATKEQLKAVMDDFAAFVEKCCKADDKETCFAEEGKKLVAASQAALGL
Procedure: Human serum albumin (HSA) binding was determined in analogy to a previously published ultracentrifugation method. Therefore, the peptides of interest were incubated in a solution of HSA (700 µM in phosphate-buffered saline) at 37 °C for 30 min (n = 6). All values were corrected for unspecific binding.

SMILES	Internalization Values (%F11N) 6 h (CCK-2R) [%F11N]	Internalization Values (%) 1 h (CCK-2R) [%]	Internalization Values (%) 2 h (CCK-2R) [%]	Internalization Values (%) 4 h (CCK-2R) [%]	Internalization Values (%) 6 h (CCK-2R) [%]	HSA Binding (%) [1] [%]	HSA Binding (%) ([1]; listed as [^177Lu]Lu-DOTA-rhCCK-18)
CCCC[C@H](NC(=O)[C@H](Cc1c[nH]c2ccccc12)NC(=O)CNC(=O)[C@H](Cc1ccc(O)cc1)NC(=O)[C@H](C)NC(=O)CC[C@@H](NC(=O)CC[C@@H](NC(=O)CC[C@@H](NC(=O)CC[C@@H](NC(=O)CC[C@@H](NC(=O)CC[C@@H](NC(=O)CC[C@@H](NC(=O)CC[C@@H](NC(=O)[C@@H](CNC(=O)c1ccc([Si](F)(C(C)(C)C)C(C)(C)C)cc1)NC(=O)CN1CCN(CC(=O)O)CCN(CC(=O)O)CCN(CC(=O)O)CC1)C(=O)O)C(=O)O)C(=O)O)C(=O)O)C(=O)O)C(=O)O)C(=O)O)C(=O)O)C(=O)N[C@@H](CC(=O)O)C(=O)N[C@@H](Cc1ccccc1)C(N)=O [[^19F]F-[^177Lu]Lu-DOTA-rhCCK-18] [metal not drawn]	244 ± 7	15.4 ± 1.4	24.1 ± 1.6	41.6 ± 2.6	54.8 ± 1.5	62.6	62.6
CCCC[C@H](NC(=O)[C@H](Cc1c[nH]c2ccccc12)NC(=O)CNC(=O)[C@H](Cc1ccc(O)cc1)NC(=O)[C@H](C)NC(=O)CC[C@@H](NC(=O)CC[C@@H](NC(=O)CC[C@@H](NC(=O)CC[C@@H](NC(=O)CC[C@@H](NC(=O)CC[C@@H](NC(=O)[C@@H](CNC(=O)c1ccc([Si](F)(C(C)(C)C)C(C)(C)C)cc1)NC(=O)CN1CCN(CC(=O)O)CCN(CC(=O)O)CCN(CC(=O)O)CC1)C(=O)O)C(=O)O)C(=O)O)C(=O)O)C(=O)O)C(=O)O)C(=O)N[C@@H](CC(=O)O)C(=O)N[C@@H](Cc1ccccc1)C(N)=O [[^177Lu]Lu-DOTA-rhCCK-16, metal not drawn]	215 ± 7	19.5 ± 2.3	33.1 ± 1.7	43.9 ± 0.7	51.1 ± 1.7	89.1	–
